What is called EC50 is the concentration needed to bring the measured effect to its halfway point.

Like-named read-outs stand apart in the source and are kept apart here. No end group written: not given here.

The assay deals with T1, GPR103 E203^ECL2A (Homo sapiens, UniProt Q96P65, E203A).
T1 construct: we used human full-length QRFPR-encoding plasmids; expressed in transfected cells; host or cells: HEK293 cells, pCAGGS vector
T1 sequence (Q96P65 1-431 E203A): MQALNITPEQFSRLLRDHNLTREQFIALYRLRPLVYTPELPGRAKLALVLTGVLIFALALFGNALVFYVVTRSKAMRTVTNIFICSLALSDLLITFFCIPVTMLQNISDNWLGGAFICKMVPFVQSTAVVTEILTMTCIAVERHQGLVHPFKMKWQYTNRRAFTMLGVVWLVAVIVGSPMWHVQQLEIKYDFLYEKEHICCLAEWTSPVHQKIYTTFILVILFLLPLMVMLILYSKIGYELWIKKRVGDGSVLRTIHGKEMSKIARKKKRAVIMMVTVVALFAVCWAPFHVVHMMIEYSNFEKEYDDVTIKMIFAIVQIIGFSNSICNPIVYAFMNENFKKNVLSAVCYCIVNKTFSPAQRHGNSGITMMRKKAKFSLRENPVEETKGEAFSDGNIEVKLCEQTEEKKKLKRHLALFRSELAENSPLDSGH
The assay can be described thus: TGFα shedding assay; Exp. level >WT (1:1). It counts as cell-based. How it is done: For the TGFα shedding assay and the flow cytometry analysis, we used human full-length QRFPR-encoding plasmids. Specifically, GPR103 was N-terminally modified with an HA signal sequence followed by a FLAG epitope and then a flexible linker ([…]; the FLAG epitope is underlined) and inserted into the pCAGGS vector. Plasmid encoding GPR103 mutants were generated using Quickchange Site-Directed Mutagensis kit (Agilent).
The TGFα shedding assay was performed as described previously with minor modifications. Plasmid transfection was performed in a 6-well plate with a mixture of 500 ng (per well in a 6-well plate) AP-TGFα-encoding plasmid and 200 ng GPR103-encoding plasmid. After 1-day culture, the transfected cells were harvested by trypsinization, pelleted by centrifugation at 190 × g for 5 min, and washed once with 5 mM HEPES (pH 7.4)-containing Hank’s Balanced Salt Solution (HBSS). After centrifugation, the cells were resuspended in 8 mL of the HEPES-containing HBSS. The cell suspension was seeded in a 96-well culture plate (cell plate) at a volume of 90 μL (per well hereafter) and incubated in a 37 °C incubator with 5% CO2 for 30 min. […] After spinning the cell plates at 190 × g for 2 min, 80 μL of conditioned media was transferred to an empty 96-well plate (conditioned media (CM) plate). Then, 80 μL of AP reaction solution (10 mM p-nitrophenylphosphate (p-NPP), 120 mM Tris-HCl (pH 9.5), 40 mM NaCl, and 10 mM MgCl2) was dispensed into the cell plates and the CM plates. Absorbance at 405 nm of the plates was measured using a microplate reader (SpectraMax 340 PC384, Molecular Devices) before and after 1-h incubation at room temperature. Ligand-induced AP-TGFα release was calculated by subtracting spontaneous AP-TGFα release signal from ligand-induced AP-TGFα release signal. The AP-TGFα release signals were fitted to a four-parameter sigmoidal concentration–response curve, using the Prism 10 software (GraphPad Prism). For each replicate experiment, the pEC50 parameter (negative logarithmic values of EC50 values) of the individual GPR103 mutants were normalized to that of the wild-type GPR103 performed in parallel, and resulting ∆pEC50 values were used to denote ligand response activity of the mutants. […]
Exp. le vel: WT (1:5 0)Exp. le vel: WT (1:5 0)Exp. le vel: WT (1:5 0)Exp. le vel: WT (1:2 0)Exp. le vel: WT (1:2 0)Exp. le vel: WT (1:1 0) […]
L1 4N - t e r mA F2 5N - t e r mA I 2 6N - t e r mA Y 2 9N - t e r mA C 9 82 .5 7A T10 22 .6 1A Exp . l eve l: WT (1 :5)Exp . l evel : >WT (1 :1)Exp. le vel: WT (1:2 0)Exp. le vel: WT (1:2 0)Exp. le vel: WT (1:5 0)Exp . l eve l: WT (1 :1) […]
Exp. le vel: WT (1:1 0)Exp. le vel: WT (1:2 0) C 1 1 83 .2 5AExp. le vel: WT (1:5 0)Exp. le vel: WT (1:5 0)Exp. le vel: WT (1:2 0)Exp . l eve l: WT (1 :5) […]
Exp. le vel: WT (1:5 0)Exp. le vel: WT (1:1 0)Exp. le vel: WT (1:5 0) E203ECL2AExp . l evel : >WT (1 :1)Exp. le vel: WT (1:5 0)Exp. le vel: WT (1:5 0) […]
Exp . l eve l: WT (1 :1) F28Exp. le vel: WT (1:5 0) C 2 8 56 .4 7AExp. le vel: WT (1:2 0) WExp. le vel: WT (1:2 0) F28Exp. le vel: WT (1:5 0)Exp . l evel : >WT (1 :1) […]
Exp. le vel: WT (1:5 0)Exp. le vel: WT (1:5 0) C 3 2 77 .4 8AExp . l eve l: WT (1 :5)Exp . l evel : >WT (1 :1)Exp . l evel : >WT (1 :1) […]
Suppl eme nt ary Figure 1 | Mutational analysis of GPR103. […]
mutants. Data are presented as mean values ± SEM, normally n=3-5; dots), each performed in triplicate. b-d Cell-surface expression (b) and QRFP26-in-duced activation of GPR103 (c, d) were analyzed by the flow cytometry and the TGFα shedding assay, respectively. From the concentration–response curves (a), Emax (c) and ΔpEC50 (d) values relative to the wild type were calculated. Colors in the mutant bars indicate an expression level matching to that of titrated wild type. Statistical analyses were performed using the ordinary one-way ANOVA followed by Dunnett tests with the expression-matched […]

As to TSGPLGNLAEELNGYSRKKGGFSFRF-NH2 [QRFP26], the Emax came to 96.63 % WT (Exp. #1); 100.59 % WT (Exp. #2); 99.12 % WT (Exp. #3); 98.8% (mean, read-out: Emax); 101 ± 0.94% (n = 3, read-out: Emax). Further, the EC50 (n = 3) was 288 nM.

The values are drawn from article PMC11187126, “Structure and dynamics of the pyroglutamylated RF-amide peptide QRFP receptor GPR103” (Nature Communications, 2024).
